We go through seven compounds from patent US8557848B2, “4,5-ring annulated indole derivatives for treating or preventing of HCV and related viral infections” (Merck Sharp & Dohme Corp., priority 2006, dated 2013).

Some results are limits rather than exact numbers.

In assay [1] the target is T1, HCV NS5B polymerase (NS5BΔCT21, from HCV-Con 1 isolate, genotype 1b) (Hepatitis C virus genotype 1b, UniProt Q9WMX2).
T1 construct: A soluble C-terminal 21-amino acid truncated NS5B enzyme form; polyhistidine (C); made in house; host or cells: Escherichia coli
In words: HCV NS5B Polymerase Inhibition Assay. It counts as biochemical. Particulars: NS5B polymerase inhibition, [33P]-CTP incorporation, 22° C. for 2 hours; read-out: IC50. The method, boiled down:
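His-tagged NS5BΔCT21 (30 or 150 nM) with 0.03 μM DCoH75 RNA template, 0.25 mM GAU, 0.1 μM ATP/GTP/UTP, 0.026 μM CTP plus [^33P]-CTP, pH 7.3, 2% DMSO; 2 h at 22° C. Incorporated radioactivity counted after filter capture. IC50 from 10-point 2-fold dilutions (top 200 μM to 1 μM) fitted to Hill equation.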

The subject of assay [2] is HCV replicon cells (replicon RNA level). Briefly: Cell-Based HCV Replicon Assay. Conditions: Hepatitis C virus, 72 h; replicon RNA level by real time PCR (Taqman), cells harvested on day 3; read-out: EC50. Summed up: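 Replicon cells at 5000/well received 10 serial 2-fold compound dilutions in 0.5% DMSO, 5% FBS, harvested day 3. Replicon RNA quantified by multiplex Taqman RT-PCR on NS5B versus GAPDH; EC50 and EC90 taken at ΔCT = 1 and 3.2 above baseline from sigmoid fits.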
In general terms: A replicon is a self-replicating genome or part of one, used to study replication in cells.

Take `O=C(NS(=O)(=O)C1CC1)c1c(-c2ccc[nH]c2=O)c2c3ncsc3ccc2n1Cc1cc2ccccc2nc1Cl` [Compound 209]: the concentration for half-maximal inhibition (IC50) (as a rule, the concentration needed to halve the response being measured) in assay [1] was < 25 nM. Also, the EC50 (as a rule, the concentration giving half of the maximal effect) in assay [2] is < 500 nM.
Regarding `CS(=O)(=O)NC(=O)c1c(-c2ccc[nH]c2=O)c2c3occc3c(F)cc2n1Cc1ccccc1F` [Compound 134], the 50% inhibitory concentration (IC50) in assay [1] was < 25 nM. For the same compound, in assay [2], the EC50 was < 500 nM.
As for `CNC(=O)c1ccc(F)c(Cn2c(C(=O)O)c(-c3ccc[nH]c3=O)c3c4occc4c(F)cc32)c1` [Compound 121], the IC50 in assay [1] was < 25 nM. The EC50 in assay [2] is < 500 nM.
Taken in the same sequence, the figures for `O=C(O)c1c(-c2ccc[nH]c2=O)c2c3occc3c(F)cc2n1Cc1cc2nc[nH]c2cc1F` [Compound 105] were < 25 nM and < 500 nM.
Taken in the same sequence, the figures for `Cc1ccc2cc(Cn3c(C(=O)O)c(-c4ccc[nH]c4=O)c4c5occc5c(F)cc43)c(Cl)nc2c1` [Compound 139] were < 25 nM and < 500 nM.
Taken in the same sequence, the figures for `NC(=O)c1cc(Cn2c(C(=O)O)c(-c3ccc[nH]c3=O)c3c4occc4c(F)cc32)cs1` [Compound 97] were < 25 nM and < 500 nM.
On to `CS(=O)(=O)NC(=O)c1c(-c2ccc[nH]c2=O)c2c3occc3c(F)cc2n1Cc1ccc2[nH]c(C(F)(F)F)nc2c1` [Compound 208], for which, in assay [1], the IC50 is < 25 nM. Also, the EC50 in assay [2] was < 500 nM.
